Experiment: Canine imaging and biodistribution model
Details: for route of excretion: i.v. infusion, gamma camera images and biodistribution
Description: A canine imaging and biodistribution model was used to evaluate the radiopharmaceuticals of Examples 5 and 7.
Adult beagle dogs of either sex (9-13 kg) were anesthetized with pentobarbital sodium (35 mg/kg,i.v.) and ventilated with room air via an endotracheal tube (12 strokes/min, 25 ml/kg). For arterial pressure determination, the right femoral artery was cannulated with a saline-filled polyethylene catheter (PE-240) and connected to a Statham pressure transducer (P23ID; Oxnard, Calif.). Mean arterial blood pressure was determined via damping the pulsatile pressure signal. Heart rate was monitored using a cardiotachometer (Biotach, Grass Quincy, Mass.) triggered from a lead II electrocardiogram generated by limb leads. All parameters were monitored continuously on a polygraph recorder (model 7D Grass) at a paper speed of 10 mm/min or 25 mm/sec. The right femoral vein was cannulated (PE-240) for drug administration. A control blood sample was collected for hematology analysis on an MCA210 (APTT, PT), K1000 (cell number), and Chrono Log Aggregometer (collagen induced platelet aggregation). Blood samples were also collected immediately after infusion, 30, 60, and 120 minutes post infusion. Samples of blood were retained for blood clearance determination at control, immediately following infusion, 15, 30, 60, 90, and 120 minutes post infusion. Administration of test article was given no earlier than 20 minutes post surgery. The test article was administered as a 10 cc slow infusion over 5 minutes. Images were acquired by a gamma camera over 5 minutes and taken during infusion, 5, 15, 30, 60, 90, 120 minutes post infusion (Digital Dyna Camera, Picker International, Cleveland, Ohio). At the end of the protocol the animal was euthanized with an overdose of pentobarbital and a biodistribution performed. The samples collected for biodistribution (muscle, liver, kidney, bile, spleen, heart, lung thyroid, and urine) and the blood clearance samples were weighed and the amount of activity determined via a gamma well counter (LKB 1282, Wallac Inc).

[1] = at 120 min post-injection, beagle dogs

For “[^99mTc (HYPY) (tricine) (TFP)] [Example 5]”, the route of excretion (anesthetized adult beagle dogs) was “predominantly hepatobiliary” and the “clearance from the blood” value (dog, in vivo, iv) was “Rapid blood clearance”.

In the case of “[^99mTc (HYNICamide) (tricine) (TPPTS)] [Example 7]”, the route of excretion (anesthetized adult beagle dogs) was “predominantly renal”, the “clearance from the blood” value (anesthetized adult beagle dogs, slow i.v. infusion over 5 minutes, blood samples up to 120 minutes post infusion) was “rapid clearance” and the “portion of the radiopharmaceutical located in the bladder” value [1] was “vast majority”. For the same substance, the “radiopharmaceutical remaining in the blood, the muscle or other organs” value [1] was “very little remaining”.
